Source: patent US20140286903A1, “Substituted Purine Nucleosides, Phosphoramidate and Phosphordiamidate Derivatives for Treatment if Viral Infections” (INHIBITEX, INC., priority 2011, published 2014)

Key:
[1] = Cytotoxicity assay (CellTiter-Glo); format: cell-based; conditions: human, 72 h incubation, concentration resulting in 50% luminescent signal
Experimental: (§1) Further to the above Examples, representative compounds, prepared according to the examples were tested for potency in an HCV replicon assay (Genotype 1b) for activity against the virus (EC50) and toxicity to the cells (CC50).
(§2) Huh7 Replicon Cell Lines and Cell Culture Conditions: A luciferase-reporter genotype 1b subgenomic replicon cell line, and a genotype 1a full-length replicon cell line were obtained from Apath, LLC, Brooklyn, N.Y.: All cell lines were passaged twice a week by splitting 4 or 6 fold. Cells were maintained in DMEM-high glucose medium (HyClone, Logan, Utah) supplemented with 9% FBS (HyClone), 2 mM glutamine (Invitrogen, Carlsbad, Calif.), 100 U/mL PenStrep (Invitrogen). Media also contained 0.25 mg/mL of the antibiotic G-418 to maintain stable expression of the replicon (Invitrogen). Incubation was performed at 37° C. in 5% CO2 atmosphere. Replicon cell lines were used until they accumulated 15-to-18 passages, after which cells were restarted from the frozen stock. Seeding cell counts were routinely determined using an automatic Cedex HiRes cell counter (Flownomics Analytical Instruments, Madison, Wis.) or manually using INCYTO C-Chip™ Disposable Hemacytometers (Fisher Scientific, Pittsburg, Pa.).
Cytotoxicity Assay. Cells were seeded into 96-well plates at a density of 2×10^4 cells per well. 24 h after cell plating, 11 serial 2× compound dilutions, starting with 100 µM, were applied to the testing plates (3 repeats per compound dilution). Each testing plate was run with a “no-compound” control. Incubation with compounds was continued at 37° C. in a CO2 incubator for 72 h. To determine cell viability, the CellTiter-Glo® assay (Promega, Madison, Wis.) was performed according to the manufacturer's protocol. The compound concentration resulting in 50% luminescent signal was reported as the CC50 concentration.

[2] = system: HCV replicon (Genotype 1b); test: Luciferase genotype 1b replicon potency assay; format: cell-based, hepatitis C virus; conditions: Renilla luciferase reporter activity, 50% decrease vs untreated cells
Experimental: as §1, §2
Luciferase Genotype 1b Replicon Potency Assay. Replicon cells were seeded into white 96-well plates (Nunc/VWR) at a density of 2×10^4 cells/well in medium without G-418. A Stacker Multidrop Liquid Dispenser (MTX Lab Systems, Vienna, Va.) was employed to ensure uniform and fast cell seeding into multiple plates. 18-24 h after cell plating, inhibitors were added and cells were incubated for additional 24, 48, or 72 h (as indicated). Compounds were tested in triplicates and quadruplicates at 3× or 4× serial dilutions over a range of 0.0001-to-10 μM concentrations. HCV replication was monitored by Renilla luciferase reporter activity assay using Renilla luciferase reporter (Promega, Madison, Wis.) and a Veritas Luminometer (Turner Biosystems, Sunnyvale, Calif.). 50% and 90% inhibitory concentration (IC50 and IC90) values were calculated as the concentration of compound that results correspondingly in 50% and 90% decreases in the reporter expression as compared to untreated cells. The values were determined by non-linear regression (four-parameter sigmoidal curve fitting) analysis.

[3] = Huh7 HCV replicon cells (genotype 1b)
[4] = Hepatitis C virus, Huh-7, Huh7 luciferase-reporter genotype 1b subgenomic replicon cells

Row | Compound | CC50 at 72 h [1, 3] [µM] | IC50 [2, 4] [µM] | IC50 ([2]; Huh7 luciferase-reporter genotype 1b subgenomic replicon cells) [µM] | CC50 at 72 h [1] [µM]
1 | COc1nc(N)nc2c1ncn2[C@@H]1O[C@H](CO)[C@@H](F)[C@@]1(C)O [Example 2, (2R,3S,4R,5R)-2-(2-amino-6-methoxy-9H-purin-9-yl)-4-fluoro-5-(hydroxymethyl)-3-methyltetrahydrofuran-3-ol] | > 100 | > 100 |  | 
2 | C[C@@]1(O)[C@H](F)[C@@H](CO)O[C@H]1n1cnc2c(=O)[nH]c(N)nc21 [Example 3, 2-amino-9-((2R,3S,4R,5R)-4-fluoro-3-hydroxy-5-(hydroxymethyl)-3-methyltetrahydrofuran-2-yl)-1H-purin-6(9H)-one] | > 100 | > 100 |  | 
3 | COc1nc(N)nc2c1ncn2[C@H]1O[C@H](CO)[C@@H](F)[C@]1(C)O [Example 4, (2S,3R,4R,5R)-2-(2-Amino-6-methoxy-9H-purin-9-yl)-4-fluoro-5-(hydroxymethyl)-3-methyltetrahydrofuran-3-ol] | > 100 | > 100 |  | 
4 | C[C@]1(O)[C@H](F)[C@@H](CO)O[C@@H]1n1cnc2c(Cl)nc(N)nc21 [Example 5, (2S,3R,4R,5R)-2-(2-amino-6-chloro-9H-purin-9-yl)-4-fluoro-5-(hydroxymethyl)-3-methyltetrahydrofuran-3-ol] | > 100 | > 100 |  | 
5 | CCOc1nc(N)nc2c1ncn2[C@@H]1O[C@H](CO)[C@@H](F)[C@@]1(C)O [Example 6, (2R,3S,4R,5R)-2-(2-amino-6-ethoxy-9H-purin-9-yl)-4-fluoro-5-(hydroxymethyl)-3-methyltetrahydrofuran-3-ol] | > 100 | > 100 |  | 
6 | C[C@@]1(O)[C@H](F)[C@@H](CO)O[C@H]1n1cnc2c(N3CCC3)nc(N)nc21 [Example 7, (2R,3S,4R,5R)-2-(2-Amino-6-(azetidin-1-yl)-9H-purin-9-yl)-4-fluoro-5-(hydroxymethyl)-3-methyltetrahydrofuran-3-ol] | > 100 | 24 | > 40 | 
7 | C[C@@]1(O)[C@H](F)[C@@H](CO)O[C@H]1n1cnc2c(N)ncnc21 [Example 8, (2R,3S,4R,5R)-2-(6-Amino-9H-purin-9-yl)-4-fluoro-5-(hydroxymethyl)-3-methyltetrahydrofuran-3-ol] | > 100 | > 100 |  | 
8 | C[C@@]1(O)[C@H](F)[C@@H](CO)O[C@H]1n1ccc(N)nc1=O [Example 9, 4-Amino-1-((2R,3S,4R,5R)-4-fluoro-3-hydroxy-5-(hydroxymethyl)-3-methyltetrahydrofuran-2-yl)pyrimidin-2(1H)-one] | > 100 | > 100 |  | 
9 | C[C@@]1(O)[C@H](F)[C@@H](CO)O[C@H]1n1ccc(=O)[nH]c1=O [Example 10, 1-((2R,3S,4R,5R)-4-Fluoro-3-hydroxy-5-(hydroxymethyl)-3-methyltetrahydrofuran-2-yl)pyrimidine-2,4(1H,3H)-dione] | > 100 | 23 |  | 
10 | COc1nc(N)nc2c1ncn2[C@@H]1O[C@H](CO)[C@H](F)[C@@]1(C)O [Example 11, (2R,3S,4S,5R)-2-(2-Amino-6-methoxy-9H-purin-9-yl)-4-fluoro-5-(hydroxymethyl)-3-methyltetrahydrofuran-3-ol] | > 100 | > 100 |  | 
11 | COc1nc(N)nc2c1ncn2[C@@H]1O[C@H](COP(=O)(N[C@@H](C)C(=O)OCc2ccccc2)Oc2cccc3ccccc23)[C@@H](F)[C@@]1(C)O (stereo partly drawn) [Example 12, (2S)-Benzyl 2-((((2R,3R,4S,5R)-5-(2-amino-6-methoxy-9H-purin-9-yl)-3-fluoro-4-hydroxy-4-methyltetrahydrofuran-2-yl)methoxy)(naphthalen-1-yloxy)phosphorylamino)propanoate] |  | 0.77 |  | 48
12 | COc1nc(N)nc2c1ncn2[C@@H]1O[C@H](COP(=O)(N[C@@H](C)C(=O)OCc2ccc(F)cc2F)Oc2cccc3ccccc23)[C@@H](F)[C@@]1(C)O (stereo partly drawn) [Example 13, (2S)-2,4-Difluorobenzyl 2-((((2R,3R,4S,5R)-5-(2-amino-6-methoxy-9H-purin-9-yl)-3-fluoro-4-hydroxy-4-methyltetrahydrofuran-2-yl)methoxy)(naphthalen-1-yloxy)phosphorylamino)propanoate] |  | 1 |  | 68
13 | CCCCOC(=O)[C@H](C)NP(=O)(OC[C@H]1O[C@@H](n2cnc3c(OC)nc(N)nc32)[C@](C)(O)[C@@H]1F)Oc1cccc2ccccc12 (stereo partly drawn) [Example 14, (2S)-butyl 2-((((2R,3R,4S,5R)-5-(2-amino-6-methoxy-9H-purin-9-yl)-3-fluoro-4-hydroxy-4-methyltetrahydrofuran-2-yl)methoxy)(naphthalen-1-yloxy)phosphorylamino)propanoate] |  | 0.33 |  | 40
14 | COc1nc(N)nc2c1ncn2[C@@H]1O[C@H](COP(=O)(N[C@@H](C)C(=O)OCCC(C)(C)C)Oc2cccc3ccccc23)[C@@H](F)[C@@]1(C)O (stereo partly drawn) [Example 15, (2S)-3,3-Dimethylbutyl 2-((((2R,3R,4S,5R)-5-(2-amino-6-methoxy-9H-purin-9-yl)-3-fluoro-4-hydroxy-4-methyltetrahydrofuran-2-yl)methoxy)(naphthalen-1-yloxy)phosphorylamino)propanoate] |  | 0.5 |  | 21
15 | COc1nc(N)nc2c1ncn2[C@@H]1O[C@H](COP(=O)(N[C@@H](C)C(=O)OCC(C)(C)C)Oc2cccc3ccccc23)[C@@H](F)[C@@]1(C)O (stereo partly drawn) [Example 16, (2S)-Neopentyl 2-((((2R,3R,4S,5R)-5-(2-amino-6-methoxy-9H-purin-9-yl)-3-fluoro-4-hydroxy-4-methyltetrahydrofuran-2-yl)methoxy)(naphthalen-1-yloxy)phosphorylamino)propanoate] |  | 0.37 |  | 29
16 | COc1nc(N)nc2c1ncn2[C@@H]1O[C@H](COP(=O)(N[C@@H](C)C(=O)OC2CCCC2)Oc2cccc3ccccc23)[C@@H](F)[C@@]1(C)O (stereo partly drawn) [Example 17, (2S)-Cyclopentyl 2-((((2R,3R,4S,5R)-5-(2-amino-6-methoxy-9H-purin-9-yl)-3-fluoro-4-hydroxy-4-methyltetrahydrofuran-2-yl)methoxy)(naphthalen-1-yloxy)phosphorylamino)propanoate] |  | 0.45 |  | 40
17 | COc1nc(N)nc2c1ncn2[C@@H]1O[C@H](COP(=O)(N[C@@H](C)C(=O)OC2CCCCC2)Oc2cccc3ccccc23)[C@@H](F)[C@@]1(C)O (stereo partly drawn) [Example 18, (2S)-Cyclohexyl 2-((((2R,3R,4S,5R)-5-(2-amino-6-methoxy-9H-purin-9-yl)-3-fluoro-4-hydroxy-4-methyltetrahydrofuran-2-yl)methoxy)(naphthalen-1-yloxy)phosphorylamino)propanoate] |  | 1.3 |  | 30
18 | COc1nc(N)nc2c1ncn2[C@@H]1O[C@H](COP(=O)(N[C@@H](C)C(=O)OC2CCOCC2)Oc2cccc3ccccc23)[C@@H](F)[C@@]1(C)O (stereo partly drawn) [Example 19, (2S)-Tetrahydro-2H-pyran-4-yl 2-((((2R,3R,4S,5R)-5-(2-amino-6-methoxy-9H-purin-9-yl)-3-fluoro-4-hydroxy-4-methyltetrahydrofuran-2-yl)methoxy)(naphthalen-1-yloxy)phosphorylamino)propanoate] |  | 1.4 |  | 77
19 | CCOc1nc(N)nc2c1ncn2[C@@H]1O[C@H](COP(=O)(N[C@@H](C)C(=O)OCC(C)(C)C)Oc2cccc3ccccc23)[C@@H](F)[C@@]1(C)O (stereo partly drawn) [Example 20, (2S)-Neopentyl 2-((((2R,3R,4S,5R)-5-(2-amino-6-ethoxy-9H-purin-9-yl)-3-fluoro-4-hydroxy-4-methyltetrahydrofuran-2-yl)methoxy)(naphthalen-1-yloxy)phosphorylamino)propanoate] |  | 0.62 |  | 23
20 | CCOc1nc(N)nc2c1ncn2[C@@H]1O[C@H](COP(=O)(N[C@@H](C)C(=O)OC2CCCC2)Oc2cccc3ccccc23)[C@@H](F)[C@@]1(C)O (stereo partly drawn) [Example 21, (2S)-Cyclopentyl 2-((((2R,3R,4S,5R)-5-(2-amino-6-ethoxy-9H-purin-9-yl)-3-fluoro-4-hydroxy-4-methyltetrahydrofuran-2-yl)methoxy)(naphthalen-1-yloxy)phosphorylamino)propanoate] |  | 0.4 |  | 28
